Experimental data as given in publication PMC4684281, “Antitumor Effects and Mechanism of Novel Emodin Rhamnoside Derivatives against Human Cancer Cells In Vitro” (PLoS ONE, 2015).
Values joined by “and” are separate entries in the source; they are usually repeats but may differ in a detail not shown here. Equal values may be shown once. Read-outs that look alike come from different tables or passages of the source.

Experiments:
[1] = test system: SGC-7901 cells; test: MTT cell viability assay, SGC-7901; type: cell-based; conditions: Homo sapiens
Protocol: (§1) The viability of cancer cells was evaluated by MTT assay. Briefly, cells were inoculated in 96-well culture plates at the density of 1×10^4/well with complete medium containing 10% fetal calf serum in a final volume of 0.2 mL. Cells were incubated at 37°C for at least 24 hours to allow optimal attachment. When the cells reached 60% confluence, they were treated with Cisplatin, HCPT and emodin rhamnopyranosides derivatives in various concentrations, and incubated in a humidity-controlled 5%CO2 incubator at 37°C for 72 hours. Medium were exchanged once every 24 hours. Cell control group and blank group were set up in the same manner, with each group having six parallel wells. Cell survival was assessed by directly adding 22 μL of 5mg/mL MTT to 0.2 mL medium. After three hours, the formazan precipitate was dissolved in 200μL isopropanol per well, and completely mixed under room temperature. Afterwards, the optical density of each well was detected at 570 nm wavelength by iMark microplate reader (Bio-rad,USA). This experiment was repeated at least three times.

[2] = test system: Cyto C gene expression of HepG2 cells; test: RT-qPCR gene expression, Cytochrome C; type: cell-based, Human; conditions: 48 hours, control 1.030±0.280
Protocol: HepG2 cells were inoculated in 6-well culture plates at a density of 3×10^5 cells/well, and allowed to attach at 37°C for 24 hours. Then cells were treated with specific concentrations of EM-d-Rha and incubated in a humidified incubator supplied with 5% CO2 at 37°C for 48 hours. Medium were changed once every 24 hours. Afterwards, mRNA was extracted from every group using E.Z.N.A.^TM Total RNA Kit II according to the manufacturer’s instructions. The extracted mRNA was dissolved in 20 μL ddH2O (Qiagen) containing diethyl pyrocarbonate (DEPC). The concentration of mRNA was quantified with a NanoDrop ND-100 device (Thermo Fisher Scientific). cDNA was synthesized using 3μg of the extracted mRNA from each sample with PCR system (BIO-RAD,USA). The cDNA synthesis reaction was prepared according to the manufacturer’s instructions by mixing 3μg mRNA, 4.0μL 5× MMLV buffer, 3 μL oligodT18, 0.5μL 10 mM dNTP solution, 0.8μL RNase inhibitor, 3.7μL MMLV Rtase, and 6.0μL DEPC ddH2O in PCR tubes. The reaction condition was 5min at 70°C, 60 min at 42°C and 10min at 4°C. The products were used for subsequent RT-qPCR analysis. The level of mRNA expression was measured by RT-qPCR using a CFX96^TM C1000 Real-Time PCR System (BIO-RAD, USA).The primers were designed using idt.dna software system (http //www.idtdna.com). The specific primers were: Cyto C: 5′-[…]-3′ (forward), 5′- […] -3′ (reverse); Caspase 3: 5′- CCTACAGCCCATTTC TCCATAC-3′ (forward), 5′-[…]-′ (reverse); β-actin: 5′-[…]-3′ (forward), 5′-[…]-3′ (reverse). The product sizes of Cyto C, Caspase 3 and β-actin were 91bp, 125bp and 107bp, respectively. The PCR reaction was performed in a final volume of 20μL using an optical 96-well tray. The reaction mixture consisted of 10μL of SYBR I green Mix/ GoTaq®qPCR
Master Mix (Promega), 0.3μL of each primer (10μM), and 1.0 μL cDNA template. PCR cycling condition was one cycle of 5min at 95°C, 39 cycles and each of which was consisted of 15 seconds at 95°C, 15 seconds at 62°C and 30 seconds at 72°C, with final extension at 60°C for 5 Seconds. The thermal melt parameter was investigated to assess the homogeneity of PCR. Each sample was analyzed in quadruplicate and mean was used for further analysis. The mRNA expression levels of each sample were quantified by measuring the threshold cycle (CT) values of genes. The relative values of the target gene expression were calculated according to CT values of the target genes and the reference gene (β-actin) by applying Livak and Schmittgen method. That is, it equals to 2^-Δ ΔCT, ΔCT equals the mean of Ct for target gene minus the mean of Ct for β-actin gene, and ΔΔCT equals ΔCT of the treated group minus ΔCT of the control group.

[3] = test system: OVCAR-3 cells; test: MTT cell viability assay, OVCAR-3; type: cell-based, Human; conditions: for IC50: OVCAR-3
Protocol: as §1

[4] = test system: HepG2 cells; test: Flow cytometry apoptosis analysis (Annexin V/7-AAD), HepG2; type: cell-based, Human; conditions: 48h (Fig 7 legend: 72h); for Early apoptosis: control 6.16±2.20; for Late apoptosis: control 10.71±1.42; for Living cell: control 79.87±1.84
Protocol: Flow cytometry analysis was determined using Annexin V-APC/7-AAD Apoptosis Detection Kit (BD Parmagen, U.S.A). HepG2 cells were inoculated at a density of 3×10^5/well in 6-well plates, and allowed to attach at 37°C for 24 hours. Afterwards, cells were treated with specific concentration EM-d-Rha, and cultured and harvested as described previously. Cells of each sample were resuspended in […] cold binding buffer before adding 2.5μL Annexin V-APC conjugate and 5μL 7-AAD solution. Then cells were incubated for 15 min on ice in the dark. Cell suspension was diluted to a final volume of 250μL with ice-cold, 1× Annexin V Binding Buffer. The assay was conducted by flow cytometry (BD FACSCalibur,USA). Scatter plots were generated using Cell Quest pro software (BD Biosciences, San Jose, CA). The experiment was repeated three times.

[5] = test system: A549 cells; test: MTT cell viability assay, A549; type: cell-based, Human; conditions: for IC50: A549
Protocol: as §1

[6] = HepG2, 10μM, listed as EM-d-Rha

With `CC(=O)O[C@@H]1[C@@H](O[C@@H]2O[C@@H](C)[C@H](O)[C@@H](OC(C)=O)[C@H]2OC(C)=O)[C@H](C)O[C@@H](Oc2cc(O)c3c(c2)C(=O)c2cc(C)cc(O)c2C3=O)[C@@H]1OC(C)=O` [S-8, 3-(2”,3”-Di-O-acetyl-α-L-rhamnopyranosyl-(1→4)-2’,3’-di-O-acetyl-α-L-rhamnopyranosyl)-emodin] the IC50 ([1]; MTT at 72h, n=3, mean±S.E.M, read-out: IC50 for EM-d-Rha, SGC-7901) was 1.99 ± 0.12 µM, the inhibition at 0.1 µM ([1]; SCG-7901, 0.1μM, MTT 72h, read-out: The inhibition rate of EM-d-Rha) was 20.1 ± 0.18% and the inhibition at 0.5 µM ([1]; SCG-7901, 0.5μM, MTT 72h, read-out: The inhibition rate of EM-d-Rha) was 40.99 ± 0.02%. For the same compound, the inhibition at 2.5 µM ([1]; SCG-7901, 2.5μM, MTT 72h, read-out: The inhibition rate of EM-d-Rha) was 42.63 ± 0.02%, the inhibition at 12.5 µM ([1]; SCG-7901, 12.5μM, MTT 72h, read-out: The inhibition rate of EM-d-Rha) was 95.01 ± 0.01% and the inhibition at 62.5 µM ([1]; SCG-7901, 62.5μM, MTT 72h, read-out: The inhibition rate of EM-d-Rha) was 94.33 ± 0.05%. The “Cytochrome C mRNA expression level relative to controls” value ([2]; HepG2, 0.70μM) was 1.009±0.475 fold, the “Cytochrome C mRNA expression level relative to controls” value ([2]; HepG2, 1.40μM) was 1.086±0.727 fold and the “Cytochrome C mRNA expression level relative to controls” value ([2]; HepG2, 2.80μM, listed as EM-d-Rha) was 3.258±2.402 fold. For the same compound, the “Cytochrome C mRNA expression level relative to controls” value ([2]; HepG2, 5.60μM) was 5.625±4.950 fold, the IC50 ([3]; Homo sapiens, MTT at 72h, n=3, mean±S.E.M, read-out: IC50 for EM-d-Rha, OVCAR-3) was 2.26 ± 0.92 µM and the IC50 ([3]; Homo sapiens, MTT, 72 hours, read-out: IC50 values, OVCAR-3) was 0.61 µg/mL. It also gave an inhibition at 0.1 µM ([3]; Homo sapiens, OVCAR-3, 0.1μM, MTT 72h, read-out: The inhibition rate of EM-d-Rha) of 1.4 ± 0.21%, an inhibition at 0.5 µM ([3]; Homo sapiens, OVCAR-3, 0.5μM, MTT 72h, read-out: The inhibition rate of EM-d-Rha) of 2.95 ± 1.12% and an inhibition at 2.5 µM ([3]; Homo sapiens, OVCAR-3, 2.5μM, MTT 72h, read-out: The inhibition rate of EM-d-Rha) of 66 ± 1.27%. For the same compound, the inhibition at 12.5 µM ([3]; Homo sapiens, OVCAR-3, 12.5μM, MTT 72h, read-out: The inhibition rate of EM-d-Rha) was 83.6 ± 1.15%, the inhibition at 62.5 µM ([3]; Homo sapiens, OVCAR-3, 62.5μM, MTT 72h, read-out: The inhibition rate of EM-d-Rha) was 90.64 ± 0.74% and the “Decrease of IC50 compared to the IC50 of emodin, OVCAR-3” value ([3]; from Table 1) was 42.3 fold. It also gave an Early apoptosis ([4]; HepG2, 2.5μM) of 40.40±5.70 %, a Late apoptosis ([4]; HepG2, 2.5μM) of 7.50±1.04% and a Living cell ([4]; HepG2, 2.5μM) of 51.20±5.10 %. It also gave an Early apoptosis ([4]; HepG2, 5μM) of 45.20±4.17 %, a Late apoptosis ([4]; HepG2, 5μM) of 17.53±3.16% and a Living cell ([4]; HepG2, 5μM) of 36.40±3.23 %. The Early apoptosis [4, 6] was 78.77% and 78.77±1.22 %, the Late apoptosis ([4]; HepG2, 10μM) was 4.22±1.63% and the Living cell [4, 6] was 16.53% and 16.53±0.68 %. The IC50 ([5]; Homo sapiens, MTT at 72h, n=3, mean±S.E.M, read-out: IC50 for EM-d-Rha, A549) was 1.75 ± 0.63 µM, the IC50 ([5]; Homo sapiens, MTT, 72 hours, read-out: IC50 values, A549) was 2.6 µg/mL and the inhibition at 0.1 µM ([5]; Homo sapiens, A549, 0.1μM, MTT 72h, read-out: The inhibition rate of EM-d-Rha) was 13.95 ± 0.02%. For the same compound, the inhibition at 0.5 µM ([5]; Homo sapiens, A549, 0.5μM, MTT 72h, read-out: The inhibition rate of EM-d-Rha) was 27.3 ± 2.19%, the inhibition at 2.5 µM ([5]; Homo sapiens, A549, 2.5μM, MTT 72h, read-out: The inhibition rate of EM-d-Rha) was 33.7 ± 1.46% and the inhibition at 12.5 µM ([5]; Homo sapiens, A549, 12.5μM, MTT 72h, read-out: The inhibition rate of EM-d-Rha) was 63.5 ± 1.03%. The inhibition at 62.5 µM ([5]; Homo sapiens, A549, 62.5μM, MTT 72h, read-out: The inhibition rate of EM-d-Rha) was 75.96 ± 0.58% and the “Decrease of IC50 compared to the IC50 of emodin, A549” value ([5]; from Table 1) was 7.52 fold.
